Data reported in PubChem BioAssay AID1918939 (Molecular Pharmacology Branch, DTP, NCI, 2023).
Values joined by “and” are separate entries in the source; they are usually repeats but may differ in a detail not shown here. Equal values may be shown once.

Test system: 653999-131-R-J2-PDC complex spheroid viability
Test: Anticancer human tumor 653999-131-R-J2-PDC patient-derived lung adenocarcinoma cell line growth inhibition
Details: for viability, T/C: stronger effect = lower value
Excerpt: Multicellular complex tumor spheroid response to LSD1 Inhibitor Iadademstat in combination with a variety of drugs and investigational agents in selected tumor cell lines
The current study was undertaken to assess response to LSD1 inhibitors in combination with standard-of-care drugs and investigational agents in solid tumor complex spheroid models as well as in the K-562 leukemia. Complex spheroids include a stromal component modeled by human endothelial cells (HUVEC) and fibroblasts modeled by human mesenchymal stem cells (MSCs). The concentration ranges selected for each drug and investigational agent were based upon clinically achievable concentrations if the clinical Cmax of the agent was known.
Compounds. The drugs and investigational agents used in this study are listed on Table 1. All of the agents used, including staurosporine (NSC755774) and gemcitabine (NSC613327), were obtained from the Developmental Therapeutics Program, NCI. FDA-approved anticancer drugs are available from the NCI at http://dtp.nci.nih.gov/branches/dscb/oncology_drugset_explanation.html. Drugs and investigational agents were >95% pure by proton nuclear magnetic resonance (NMR) and liquid chromatography/mass spectrometry (LC/MS). Stock solutions were prepared at 400x in DMSO, stored at -70 degrees C, and diluted in fresh medium prior to their use. The final concentration of DMSO in cell culture wells never exceeded 0.25% (v/v). The FDA-approved anticancer drug set is available from the Developmental Therapeutics Program at https://dtp.cancer.gov/organization/dscb/obtaining/available_plates.htm. All drugs and investigational agents were tested over a range starting from a high concentration at or near the clinical Cmax and decreasing in half-log increments. If the clinical Cmax for an agent had not been determined, the highest concentration tested was 10 microM.
Cell Lines. The patient-derived cancer cell (PDC) lines: 292921-168-R-J2-PDC, K24384-001-R-PDC, and 521955-158-R2-J5-PDC pancreatic carcinomas, 556581-035-R-J1 ovarian carcinoma, 324938-238-R-J1-PDC, 855422-203-R-J1-PDC and 883617-216-R-J1-PDC urothelial bladder carcinomas, 743489-274-T-PDC renal cell carcinoma, 138582-R-J1 Merkel cell tumor, K60290-347-R-J1 and K57222-313-R-J1-PDC glioblastomas, 653999-131-R-J2-PDC, LG0703-F948-PDC, and 349418-098-R-PDC non-small cell lung carcinomas, 885512-296-R-J2-PDC, 171881-019-R-J1-PDC breast carcinomas and 186277-243-T-J2-PDC and 233499-124-R-J2-PDC colon carcinomas were obtained from the NCI Patient-Derived Models Repository (PDMR, https://pdmr.cancer.gov). The established cell lines NCI/ADR-RES (RRID:CVCL_14520 and OVCAR-5 (RRID:CVCL_1628) ovarian carcinomas, 786-O (RRID:CVCL_1051) and A498 (RRID:CVCL_A498) renal cell carcinoma, NCI-H211 (ATCC, cat. CRL-5824; RRID:CVCL_1529), NCI-H196 (ATCC, cat. CRL-5823, RRID:CVCL_1509), SW 1271 (ATCC, cat. CRL-2177, RRID:CVCL_1716) and NCI-H1876 (ATCC, cat. CRL-5902, RRID:CVCL_1503) small cell lung carcinomas, MDA-MB-231 (RRID:CVCL_0062) and MDA-MB-468 (RRID:CVCL_0419)breast carcinomas (10-12). Pooled donor human umbilical vein endothelial cells (HUVEC, Lonza, cat. CC-2519) and human mesenchymal stem cells (hMSC, Lonza, cat. PT-2501) were purchased from Lonza (Walkersville, MD).
Cell Culture. All cells were maintained in an incubator at 37 degrees C and 5% CO2 with 95% humidity. The PDC lines were cultured according to standard operating procedures established by the NCI PDMR (https://pdmr.cancer.gov). Briefly all PDCs were thawed and cultured in Matrigel-coated flasks prepared with a working solution of 1X Ham's F-12 nutrient mix, without supplementation (Invitrogen, Waltham, MA, cat. 11765054), 100 U/mL penicillin-streptomycin (Invitrogen, cat. 15140122), and 2.5% Matrigel (Corning Inc., Corning, NY, cat. 354248) for the first three passages. […]
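Note: spheroids exposed to agents for seven days before readout.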

| IC50 (curve of compound) | SMILES | viability, T/C (compound 0.00316 µM) | viability, T/C (compound 0.01 µM) | viability, T/C (compound 0.0316 µM) | viability, T/C (compound 0.1 µM) | viability, T/C (compound 0.316 µM) | viability, T/C (compound 1 µM) | viability, T/C (compound 0.00949 µM) | viability, T/C (compound 0.03 µM) | viability, T/C (compound 0.0949 µM) | viability, T/C (compound 0.3 µM) | also measured |
| --- | --- | --- | --- | --- | --- | --- | --- | --- | --- | --- | --- | --- |
| 2.17 nM and 0.852 nM | CC(C)CC(NC(=O)C(Cc1ccccc1)NC(=O)c1cnccn1)B(O)O (centres undefined) | 23.9% and 13.2% | 1.83% and 5.29% | 2.67% and 1.3% | 0.76% and 1.16% |  |  |  |  |  |  | viability, T/C (compound 0.000316 µM): 114% and 119%; viability, T/C (compound 0.001 µM): 103% and 38.1% |
| 13.4 nM and 19.9 nM | CC(C)CC(NC(=O)CNC(=O)c1cc(Cl)ccc1Cl)B1OC(=O)CC(CC(=O)O)(C(=O)O)O1 (centres undefined) | 92.6% and 107% | 56.9% and 74.5% | 25.3% and 34.1% | 5.14% and 18.5% |  |  |  |  |  |  | viability, T/C (compound 0.000316 µM): 101% and 110%; viability, T/C (compound 0.001 µM): 108% and 115% |
| > 10000 nM | CC(C)c1c(-c2ccccc2)nc2c(C#N)c[nH]n2c1=O |  |  | 98.4% and 88.9% | 107% and 94.6% | 108% and 93.6% | 116% and 98.2% |  |  |  |  | viability, T/C (compound 3.16 µM): 109% and 88.9%; viability, T/C (compound 10 µM): 94.7% and 88.9% |
| > 10000 nM and 6320 nM | CC1(C)CCC(CN2CCN(c3ccc(C(=O)NS(=O)(=O)c4ccc(NCC5CCOCC5)c([N+](=O)[O-])c4)c(Oc4cnc5[nH]ccc5c4)c3)CC2)=C(c2ccc(Cl)cc2)C1 |  |  | 92.8% and 101% | 106% and 102% | 97% and 104% | 83.8% and 97.2% |  |  |  |  | viability, T/C (compound 3.16 µM): 92.2% and 85.6%; viability, T/C (compound 10 µM): 60.5% and 26.7% |
| 18.8 nM and 18.2 nM | CC1COCCN1c1cc(-c2ccnn2C)c2ccnc(-c3ccn[nH]3)c2n1 (centres undefined) | 81.7% and 58.4% | 66.4% and 56.5% | 36.3% and 41.4% | 31.9% and 35.9% | 29.8% and 45.5% | 30.5% and 53.4% |  |  |  |  |  |
| 1810 nM and > 10000 nM | CC1COCCN1c1cc(C2(S(C)(=N)=O)CC2)nc(-c2ccnc3[nH]ccc23)n1 (centres undefined) |  |  | 107% and 106% | 85.1% and 117% | 79.9% and 107% | 57.8% and 84.8% |  |  |  |  | viability, T/C (compound 3.16 µM): 38.3% and 58.8%; viability, T/C (compound 10 µM): 37.8% and 56.7% |
| > 3000 nM | CCN(c1cc(-c2ccc(CN3CCOCC3)cc2)cc(C(=O)NCc2c(C)cc(C)[nH]c2=O)c1C)C1CCOCC1 |  |  |  |  |  |  | 91.4% and 104% | 96.6% and 104% | 103% | 97.3% and 101% | viability, T/C (compound 0.949 µM): 91.9% and 89.5%; viability, T/C (compound 3 µM): 92.6% and 92% |
| 7.34 nM and 15.4 nM | CC[C@@]1(O)C(=O)OCc2c1cc1n(c2=O)Cc2cc3c(CN(C)C)c(O)ccc3nc2-1 | 66% and 83.8% | 41.8% and 55.4% | 34.3% and 41.5% | 22.4% and 29.9% |  |  |  |  |  |  | viability, T/C (compound 0.000316 µM): 108% and 99%; viability, T/C (compound 0.001 µM): 88.5% and 100% |
| < 0.949 nM | CCc1c2c(nc3ccc(O)cc13)-c1cc3c(c(=O)n1C2)COC(=O)[C@]3(O)CC |  |  |  |  |  |  | 11.9% and 12.5% | 7.76% and 6.48% | 5.86% and 7.35% | 5.31% and 11.3% | viability, T/C (compound 0.000949 µM): 25.8% and 33.6%; viability, T/C (compound 0.003 µM): 18.4% and 20.9% |
| 230 nM and 199 nM | COc1cc(C2c3cc4c(cc3C(OC3OC5COC(C)OC5C(O)C3O)C3COC(=O)C23)OCO4)cc(OC)c1O (centres undefined) |  |  |  |  |  |  | 80.5% and 89.5% | 76.5% and 74.9% | 64.3% and 57.3% | 42.8% and 45.1% | viability, T/C (compound 0.949 µM): 37.4% and 36.7%; viability, T/C (compound 3 µM): 25.3% and 27.8% |
| > 1000 nM | COc1cc(Nc2ncc3c(n2)-c2ccc(Cl)cc2C(c2c(F)cccc2OC)=NC3)ccc1C(=O)O | 96.9% and 78.1% | 90.6% and 74% | 68.8% and 68.2% | 70% and 73.6% | 73.4% and 78% | 68.2% and 64.2% |  |  |  |  |  |
| 2190 nM and 2880 nM | COc1ccc([C@@H](O)c2cc(-c3ncnc4cc(N5CCOCC5)ccc34)c(F)cc2Cl)nn1 |  |  | 101% and 104% | 93.2% and 96.7% | 77.3% and 87.9% | 61.9% and 64.3% |  |  |  |  | viability, T/C (compound 3.16 µM): 44.9% and 50.9%; viability, T/C (compound 10 µM): 29.5% and 30.6% |
| > 100 nM | Cn1ncnc1C1c2n[nH]c(=O)c3cc(F)cc(c23)NC1c1ccc(F)cc1 (centres undefined) | 96% and 98.3% | 99.2% and 101% | 89.6% and 93.2% | 94% and 91.3% |  |  |  |  |  |  | viability, T/C (compound 0.000316 µM): 97.3% and 103%; viability, T/C (compound 0.001 µM): 92.2% and 108% |
|  | NC1CC1c1ccc(-c2cccc(O)c2)cc1 (centres undefined) |  |  |  |  |  |  |  |  |  |  | IC50 (compound alone, run of 02/01/2022): > 10000 nM |
|  | NC1CCC(NC2CC2c2ccccc2)CC1 (centres undefined) |  |  |  |  | 85.8% and 90% | 86.8% [middle of 25 runs] |  |  |  |  | IC50 (compound alone, run of 01/18/2022): > 10000 nM |
| > 3000 nM | NS(=O)(=O)OCC1CC(n2ccc3c(NC4CCc5ccccc54)ncnc32)CC1O (centres undefined) |  |  |  |  |  |  | 115% and 114% | 98.1% and 121% | 91.9% and 121% | 99.7% and 70.9% | viability, T/C (compound 0.949 µM): 54.7% and 62.8%; viability, T/C (compound 3 µM): 55.3% and 60% |
| 402 nM and 414 nM | Nc1ccccc1NC(=O)c1ccc(CNC(=O)OCc2cccnc2)cc1 |  |  |  |  |  |  | 100% and 112% | 73.8% and 105% | 75% and 76.2% | 56.3% and 69.2% | viability, T/C (compound 0.949 µM): 38.6% and 20.9%; viability, T/C (compound 3 µM): 11.8% and 1.21% |
|  | Nc1ccn(C2OC(CO)C(O)C2(F)F)c(=O)n1 (centres undefined) |  |  |  |  |  |  | 49% and 73.2% | 38.4% and 57.3% | 37.5% and 50.2% | 34.7% and 50.1% | viability, T/C (compound 0.000949 µM): 64.7% and 96.4%; viability, T/C (compound 0.003 µM): 56.8% and 94.6% |
| > 1000 nM | Nc1ncn(C2CC(O)C(CO)O2)c(=O)n1 (centres undefined) | 89% and 109% | 105% and 103% | 83.9% and 95.3% | 78.7% and 96.2% | 80.5% and 91.1% | 79.3% and 85.2% |  |  |  |  |  |
| > 300 nM | Nc1ncn(C2CC(O)C(CO)S2)c(=O)n1 (centres undefined) |  |  |  |  |  |  | 103% and 100% | 76.5% and 87.5% | 76.6% and 87.2% | 62.8% and 79.2% | viability, T/C (compound 0.000949 µM): 96% and 102%; viability, T/C (compound 0.003 µM): 96.2% and 104% |
| 401 nM and > 3000 nM | O=C(C=Cc1cccc(S(=O)(=O)Nc2ccccc2)c1)NO |  |  |  |  |  |  | 87.5% and 110% | 96.6% and 99.4% | 75.9% and 90.7% | 54.9% | viability, T/C (compound 0.949 µM): 30.9% and 11.4% |
| 16.9 nM and 76.1 nM | O=C(C=Cn1cnc(-c2cc(C(F)(F)F)cc(C(F)(F)F)c2)n1)NNc1cnccn1 | 63.9% and 63.1% | 51.8% and 58% | 43.4% and 58.5% | 40.6% and 47.5% | 31.4% and 38.6% | 21.8% and 36.8% |  |  |  |  |  |
| > 10000 nM | O=C(c1cc(Cc2n[nH]c(=O)c3ccccc23)ccc1F)N1CCN(C(=O)C2CC2)CC1 |  |  | 105% and 108% | 103% and 108% | 94.7% and 105% | 92.7% and 102% |  |  |  |  | viability, T/C (compound 3.16 µM): 79% and 91.8%; viability, T/C (compound 10 µM): 68.4% and 69.3% |
